{
  "source": "patent US20250032635A1",
  "about": "“LIGAND-POLAR DRUG CONJUGATES” (priority 2023, published 2025)",
  "key": {"SK-BR-3": {"system": "SK-BR-3", "assay": "In vitro cytotoxicity assay, SK-BR-3", "format": "cell-based", "details": "SK-BR-3, HER2+++", "from_the_text": "(§1) Breast cancer cell line MDA-MB-231 and SK-BR-3, gastric cancer cell line NCI-N87, ovarian cancer cell line SK-OV-3, and pancreatic cancer cell line Capan-1 were purchased from ATCC. Breast cancer cell line JIMT-1 was purchased from Deutsche Sammlung von Mikroorganismen und Zellkulturen (DSMZ, Germany). Gastric cancer cell line MKN45 was purchased from RIKEN. Human umbilical vein endothelial cell line (HUVAC) was purchased from BCRC (Bioresource Collection and Research Center, Hsinchu City, Taiwan).\n(§2) Human MDR1 overexpressed NCI-N87 (NCI-N87-hMDR1) cell line was produced by lentiviral vector-mediated gene transduction. Briefly, the lentiviral transfer vector contains both hEF1α promotor-driven hMDR1 coding sequence (CDS) and hPGK promoter-driven EGFP-IRES-Puro bicistronic cassette. The lentivirus was packaged using second-generation lentiviral system in 293T cell line. After transfection, stable NCI-N87-hMDR1 was selected and maintained in puromycin (0.55 μg/mL) containing RPMI-1640 medium. JIMT-1 and MDA-MB-231 were maintained in DMEM supplemented with 10% heat-inactivated fetal bovine serum (FBS). […]\n(§3) In vitro cytotoxicity assays were performed as previously described (Boyd and Paull, 1995; Phillips et al., 2008). […] IC50, the half maximal inhibitory concentration, was calculated from dose-response curves which was generated by four-parameter curve fitting."}, "NCI-N87": {"system": "NCI-N87", "assay": "In vitro cytotoxicity assay, NCI-N87", "format": "cell-based", "from_the_text": "as §1\n(§4) Human MDR1 overexpressed NCI-N87 (NCI-N87-hMDR1) cell line was produced by lentiviral vector-mediated gene transduction. Briefly, the lentiviral transfer vector contains both hEF1α promotor-driven hMDR1 coding sequence (CDS) and hPGK promoter-driven EGFP-IRES-Puro bicistronic cassette. The lentivirus was packaged using second-generation lentiviral system in 293T cell line. After transfection, stable NCI-N87-hMDR1 was selected and maintained in puromycin (0.55 μg/mL) containing RPMI-1640 medium. JIMT-1 and MDA-MB-231 were maintained in DMEM supplemented with 10% heat-inactivated fetal bovine serum (FBS). NCI-N87, NCI-N87-hMDR1, SK—OV-3, and MKN45 were maintained in RPMI-1640 supplemented with 10% heat-inactivated FBS. SK-BR-3 was maintained in McCoy's 5A supplemented with 10% heat-inactivated FBS. Capan-1 was maintained in IMDM supplemented with 20% heat-inactivated FBS. HUVAC was maintained in M199 supplemented with 25 U/mL heparin, 30 μg/mL ECGS and 10% heat-inactivated FBS. All cell lines were cultured at 37° C. under 5% CO2 atmosphere.\n(§5) In Vitro Cytotoxicity Assays of APDCs\nas §3"}, "JIMT-1": {"system": "JIMT-1", "assay": "In vitro cytotoxicity assay, JIMT-1", "format": "cell-based", "details": "JIMT-1, HER2++", "from_the_text": "as §1, §2, §3"}, "Capan-1": {"system": "Capan-1", "assay": "In vitro cytotoxicity assay, Capan-1", "format": "cell-based", "details": "Capan-1, HER2++", "from_the_text": "as §1, §2, §3"}, "MKN45": {"system": "MKN45", "assay": "In vitro cytotoxicity assay, MKN45", "format": "cell-based", "details": "MKN45, HER2+", "from_the_text": "as §1, §2, §3"}, "MDA-MB-231": {"system": "MDA-MB-231", "assay": "In vitro cytotoxicity assay, MDA-MB-231", "format": "cell-based", "details": "MDA-MB-231, HER2+", "from_the_text": "as §1, §2, §3"}, "NCI-N87-hMDR1": {"system": "NCI-N87-hMDR1", "assay": "In vitro cytotoxicity assay, MDR1-overexpressing NCI-N87-hMDR1", "format": "cell-based", "protocol": "as §4, §5, §3"}, "JIMT-1 xenograft": {"system": "JIMT-1 xenograft", "assay": "JIMT-1 xenograft tumor model, cytotoxic APDCs", "format": "in vivo, mice", "details": "single intravenous injection 10 mg/kg at day zero", "protocol": "Xenograft Tumor Model Experiments for Cytotoxic APDCs\nExperiments of xenograft tumor model with cytotoxic APDCs were performed as previously described (Jumbe et al., 2010)."}},
  "data": [
    {"substance": "Trastuzumab emtansine [Kadcyla]", "values": [
      {"measurement": "IC50", "setting": "SK-BR-3; Table 2", "result": 0.06, "unit": "nM"},
      {"measurement": "GI50", "setting": "SK-BR-3; Table 3", "result": 0.052, "unit": "nM"},
      {"measurement": "IC50", "setting": "NCI-N87; NCI-N87, HER2+++, Table 2", "result": 0.15, "unit": "nM"},
      {"measurement": "GI50", "setting": "NCI-N87; NCI-N87, HER2+++, Table 3", "result": 0.24, "unit": "nM"},
      {"measurement": "IC50", "setting": "NCI-N87; NCI-N87, Table 4 (MDR1 comparison)", "result": 0.38, "unit": "nM"},
      {"measurement": "GI50", "setting": "NCI-N87; NCI-N87, Table 5 (MDR1 comparison)", "result": 0.53, "unit": "nM"},
      {"measurement": "IC50", "setting": "JIMT-1; Table 2", "result": 14, "unit": "nM"},
      {"measurement": "GI50", "setting": "JIMT-1; Table 3", "result": 15, "unit": "nM"},
      {"measurement": "IC50", "setting": "Capan-1; Table 2", "result": 86, "unit": "nM"},
      {"measurement": "GI50", "setting": "Capan-1; Table 3", "result": 64, "unit": "nM"},
      {"measurement": "IC50", "setting": "MKN45; Table 2", "result": 52, "unit": "nM"},
      {"measurement": "GI50", "setting": "MKN45; Table 3", "result": 107, "unit": "nM"},
      {"measurement": "IC50", "setting": "MDA-MB-231; Table 2", "result": 62, "unit": "nM"},
      {"measurement": "GI50", "setting": "MDA-MB-231; Table 3", "result": 156, "unit": "nM"},
      {"measurement": "IC50", "setting": "NCI-N87-hMDR1; NCI-N87-hMDR1, Table 4", "result": 2.5, "unit": "nM"},
      {"measurement": "GI50", "setting": "NCI-N87-hMDR1; NCI-N87-hMDR1, Table 5", "result": 6.7, "unit": "nM"},
      {"measurement": "NCI-N87/NCI-N87-hMDR1 (folds), GI50", "setting": "NCI-N87-hMDR1; ratio of GI50 values, Table 5", "result": 13, "unit": "folds"},
      {"measurement": "tumor volume as a function of time (FIG. 1)", "setting": "JIMT-1 xenograft", "result": "significant tumor growth"}
    ]}
  ]
}
